Consider 8 molecules from US11827628B2, “Compositions and methods for inhibition of the JAK pathway” (Rigel Pharmaceuticals, Inc., priority 2005, dated 2023).

Molecules are shown by their SMILES. Read-outs that look alike come from different tables or passages of the source.

For one test, the system named is Primary human T-cells. Kind of test: Primary Human T-Cell Proliferation Assay Stimulated with IL-2 (CellTiter-Glo). It is filed as cell-based. The conditions noted are these: primary human T-cell proliferation stimulated with IL-2; read-out: IC50, Example 42. In short, it runs like this:
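IC50 derived from CellTiter-Glo ATP signal after 72 hours of IL-2-driven proliferation at 37° C. Cells: primary human T-cells from blood, stimulated beforehand 3-4 days on anti-CD3/anti-CD28 with IL-2, then rested from IL-2 before compound exposure in duplicate; IL-2-free wells served as unstimulated control.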
(In ATP-based viability assays light output follows the ATP content of the culture.)

For test [1], the system named is IL-4 stimulated expression of CD23 in human Ramos B cells (JAK-1 and JAK-3). Kind of test: Assay for Ramos B-Cell Line Stimulated with IL-4 (CD23 upregulation, FACS). The note with it: Ramos B-cell line stimulated with IL-4, CD23 expression by FACS, read-out: IC50, Example 41. It is filed as cell-based. In short, it runs like this: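 Human Ramos B cells (5×10^4 per point, RPMI 5% serum) pre-incubated 1 h at 37 °C with compound or DMSO, then stimulated with IL-4 at 50 units/mL final for 20-24 h. CD23 upregulation measured by anti-CD23-PE staining and flow cytometry; IC50 derived.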

In the case of `Cc1ccc(Nc2ncc(F)c(Nc3ccc(OCC(N)=O)cc3)n2)cc1S(N)(=O)=O` [Compound I-94, N4-(4-Aminocarbonylmethoxy)phenyl-N2-(3-aminosulfonyl-4-methyl)phenyl-5-fluoro-2,4-pyrimidinediamine], the half-inhibitory concentration (IC50) (as a rule, the concentration that inhibits the measured activity by half) in the test with Primary human T-cells is 563 nM; in test [1], 345 nM.
In the same order, the values of `Cc1cc(Nc2nc(Nc3ccc(C)c(S(N)(=O)=O)c3)ncc2F)ccc1OCC(N)=O` [Compound I-95, N4-(4-Aminocarbonylmethoxy-3-methyl)phenyl-N2-(3-aminosulfonyl-4-methyl)phenyl-5-fluoro-2,4-pyrimidinediamine] are 325 nM and 118 nM.
Consider `CCC(=O)NS(=O)(=O)c1cccc(Nc2ncc(F)c(Nc3ccc(OCc4nc(C)no4)cc3)n2)c1` [Compound I-273], for which the IC50 came out at 193 nM with Primary human T-cells and 478 nM in test [1] (sodium salt).
In the case of `CNS(=O)(=O)c1cc(Nc2ncc(F)c(Nc3ccc(Cc4ccncc4)cc3)n2)ccc1C` [III-75, 5-Fluoro-N2-[3-(N-methylaminosulfony)-4-methylphenyl]-5-fluoro-N4-[4-(4-pyridinylmethyl)phenyl]-2,4-pyrimidinediamine], the IC50 in the test with Primary human T-cells turned out to be 220 nM; in test [1], 170 nM.
In the same order, the values of `CNS(=O)(=O)c1cc(Nc2ncc(F)c(NCCc3ccc(-c4ccncc4)cc3)n2)ccc1C` [III-78, 5-Fluoro-N2-[3-N-(methyl)aminosulfonyl-4-methylphenyl]-N4-[4-(4-pyridinyl)phenethyl]-2,4-pyrimidinediamine] are 204 nM and 275 nM.
Taken in the same sequence, the figures for `NS(=O)(=O)c1cccc(Nc2ncc(F)c(Nc3ccc(Cn4ccnc4)cc3)n2)c1` [III-81, N2-(3-Aminosulfonylphenyl)-5-fluoro-N4-[4-(1-imidazolylmethyl)phenyl]-2,4-pyrimidinediamine] were 204 nM and 180 nM.
In the same order, the values of `Cc1ccc(Nc2ncc(F)c(Nc3ccc(Cn4ccnc4)cc3)n2)cc1S(N)(=O)=O` [III-82, N2-(3-Aminosulfonyl-4-methylphenyl)-5-fluoro-N4-[4-(1-imidazolylmethyl)phenyl]-2,4-pyrimidinediamine] are 160 nM and 127 nM.
`CNS(=O)(=O)c1cc(Nc2ncc(F)c(Nc3ccc(Cn4ccnc4)cc3)n2)ccc1C` [III-83, 5-Fluoro-N2-[3-(N-methylaminosulfony)-4-methylphenyl]-5-fluoro-N4-[4-(1-imidazolylmethyl)phenyl]-2,4-pyrimidinediamine]: the IC50 amounted to 96.2 nM in the test on Primary human T-cells and 98.7 nM in test [1].
